Laboratory results: US10717981B2, “Therapeutic compositions and methods of making and using the same” (Advanced ReGen Medical Technologies, LLC, priority 2018, dated 2020)

Experiments:
[1] = test system: exosomes of heterochronic cultures; test: Exosome production and RNA content in heterochronic culture with AGO2 inhibitor; assay type: cell-based, human
Procedure: Exosomes were isolated from cell culture media by the Total Exosome Isolation Kit (Life Technologies), using a modified version of the manufacturer's protocol. Briefly, 7-day isochronic and heterochronic cultures were established with Exosome-depleted FBS Media Supplement (System Biosciences), and culture media collected on the 4th and 7th days. Cells were pelleted and supernatant transferred to another tube for further clarification at 2000 g for 30 min to remove residual cells and debris. The remaining supernatant was transferred to a fresh tube and 0.5 volumes of Total Exosome Isolation reagent added for overnight incubation at 4° C. The following day samples were centrifuged at 10,000 g for 1 hr at 4° C. to pellet the exosomes for subsequent nanoparticle tracking analysis (NTA) or long-term storage at −80° C. […] For NTA, exosomes were re-suspended in 0.5 mL of PBS and measured using the following parameters: Temperature=25.6+/−0.5° C.; Viscosity=(Water) 0.99+/−0.01 cP; Measurement time=30 sec; Syringe pump speed=30. […]
Total RNA from exosomes and cells was isolated using the miRCURY RNA Isolation Kit (Exiqon) with small and large RNAs fractionated with the RNeasy MinElute Cleanup Kit (Qiagen), both according to manufacturer's recommended specifications. […] Mapped reads from individual samples were then compared to determine fold change for each miRNA. […]

Aged TNCs = test: Viability and cell count of aged TNCs cultured with CaMKP inhibitor (Trypan blue exclusion); assay type: cell-based, human
Procedure: Aged TNCs (20×10^6 cells per sample) were cultured with CaMKP inhibitor (FT-0640107 shown below) at the following concentrations 25 uM, 10 uM, 5 uM, 1 uM & 0 (vehicle). After 48 and 72 hours, cells were harvested, counted using Turk's solution and percent viability assessed using Trypan blue exclusion.
At 72 hours following treatment with the CaMPK inhibitor, FT-0640107, or vehicle, cells were harvested, counted and viability measured using Trypan blue exclusion.

restored cells = test: Transwell co-culture of donor and receiver cell samples in presence or absence of manumycin; assay type: cell-based, human
Source text: Receiver cell samples (i.e., R1, R2, and R3) were individually paired with donor cell samples (i.e., D1, D2, and D3) and the pairs co-cultured in a transwell culture cell for four weeks. The morphology of the cells was studied at 2 weeks into the co-culture and at 4 weeks of co-culture. Gene expression arrays, protein arrays, and telomere length experiments compared freshly defrosted cells from the collection tubes (referred to as the baseline donor cell sample or baseline receiver cell sample) with cells at the 4-week study endpoint (referred to as restored cell samples).
Protein array analyses were carried out using conditioned media from the baseline donor cell sample or baseline receiver cell sample. The conditioned media was mixed with like cellular protein extracts and applied to the custom-designed arrays which consisted of antibody probes for 68 factors linked to cellular aging and senescence, collectively referred to as the senescence-associated secretory factors (SASF). Quantitative PCR gene array analyses were carried out by extracting RNA from the baseline samples or the co-cultured donor and receiver samples. The data presented represents the average metric determined for either the baseline donor cell sample, the baseline receiver cell sample, or the restored cell sample.
The nature of the soluble particles passing through the permeable membrane in the transwell co-culture experiments was investigated. Specifically, transwell co-culture experiments were carried out in the presence or absence of manumycin. Manumycin, -[(1S,5S,6R)-5-hydroxy-5-[(1E,3E,5E)-7-[(2-hydroxy-5-oxo-1-cyclopenten-1-yl)amino]-7-oxo-1,3,5-heptatrien-1-yl]-2-oxo-7-oxabicyclo[4.1.]hept-3-en-3-yl]-2E,4E,6R-trimethyl,2,4-decadienamide, is an antibiotic that acts a potent and selective farnesytransferase inhibitor. Mannumycin is also known to inhibit the release of exosomes. […] Further support for the role of exosome/microvesicles in mediating the disclosed cellular restoration process is shown in FIG. 36.

aged cells = test: Clonogenic assay (CFU-GM) of aged cells after miRNA mimic, siRNA or exosome treatment; assay type: cell-based, human; conditions: overexpression of candidate miRNAs in aged isochronic cultures, vs negative control RNA
Source text: Aged TNCs (10×10^6 cells per sample) were nucleofected with microRNA mimics (Qiagen), miRNA inhibitors (Qiagen), negative control siRNA (Qiagen), negative control miRNA inhibitor (Qiagen) or downstream target candidate siRNAs (Origene) using the Amaxa P3 Primary Cell 4D-Nucleofector X Kit (Lonza) on a 4D Nucleofector device (Lonza), according to manufacturer's specific protocol. Briefly, for nucleofection of CD34+ cells used in clonogenic assays, cells were nucleofected with 60 nmol total miRNA mimics, miRNA inhibitors or siRNA using the “human CD34+ cell” program. For nucleofection of T cells used in T cell activation and cell-mediated cytotoxicity assays, cells were nucleofected with 240 nmol total miRNA mimics, miRNA inhibitors or siRNA using the “human unstimulated T cell, high functionality” program.

Procedure for aged MPB: TNC vials were quickly thawed at 37° C. and cells added dropwise 1:10 to pre-warmed RPMI-1640 equilibration solution containing 5% HSA, 30 U/mL DNase I (Sigma), 5 mM MgCl2 and 5 mM CaCl2), and incubated at 37° C. for 3-4 hrs. After equilibration, cells were pelleted, washed in RPMI-1640 with 2% BSA and resuspended in complete media containing 10% FBS. Cells were seeded at densities of 10 or 30×10^6 cells/well in 12- or 6-well plates, respectively, containing 0.4 μm transwell inserts (BD Falcon). Heterochronic cultures were established with young cells in the upper chamber and aged cells in the lower chamber. Cells were incubated at 37° C. for 7 days, with 15% of culture media replenished with fresh media on the 4th day. On the 7th day, cells were harvested by centrifugation and evaluated.
Non-adherent cells from LTC-IC assays, as well as cells from isochronic and heterochronic cultures, were studied for progenitors in short-term methylcellulose culture using a CFU-GM readout. Briefly, cultures were initiated by seeding 150 cells/mm^2 in clonogenic media containing 3 U/mL of rhGM-CSF (R&D Systems). After 10 days, cultures were scored by a single blinded observer, and colonies enumerated for CFU-GM.

With `CC(NS(=O)(=O)c1ccc2[nH]c(=O)c(=O)[nH]c2c1)C(=O)O` (centres unmarked) [BCI-137] the “aged MPB clonogenicity” value (aged MPB; inhibitor added to heterochronic cultures upon initial seeding) was “significant decrease”, the “exosome production and total RNA content” value [1] was “minimal effect” and the “small and miRNA payload of exosomes” value [1] was “depleted”.

For `Nc1c(S(=O)(=O)O)cc(S(=O)(=O)[O-])c2cccc(O)c12.[Na+]` [FT-0640107], the cell number (Aged TNCs; 1 μM, 72 hours, vs vehicle control and high dose (25 μM), donor A04) was “increase in cell number”, the viability at 1 µM (Aged TNCs; Homo sapiens, 1 μM, 72 hours, donor A04) was 96.3% and the viability at 25 µM (Aged TNCs; Homo sapiens, high dose of 25 μM, 72 hours, donor A04) was 93%. For the same molecule, the “cell viability and cell number” value (Aged TNCs; donor A03, 48 or 72 hour timepoints) was “no significant difference”.

In the case of `O=C(/C=C/c1ccc(/C=C/C(=O)Nc2ccc(C3=NCCN3)cc2)cc1)Nc1ccc(C2=NCCN2)cc1` [GW4869], the “toxicity to the aged cultures” value (aged MPB) is reported as “extremely toxic” and the restorative phenotype (aged MPB; blocking global exosome production (data not shown)) is reported as “abrogated”.

`CCCC[C@@H](C)/C=C(C)/C=C(\C)C(=O)NC1=C[C@@](O)(/C=C/C=C/C=C/C(=O)NC2=C(O)CCC2=O)[C@@H]2O[C@@H]2C1=O` [manumycin, -[(1S,5S,6R)-5-hydroxy-5-[(1E,3E,5E)-7-[(2-hydroxy-5-oxo-1-cyclopenten-1-yl)amino]-7-oxo-1,3,5-heptatrien-1-yl]-2-oxo-7-oxabicyclo[4.1.]hept-3-en-3-yl]-2E,4E,6R-trimethyl,2,4-decadienamide] was tested, and the “morphology of restored cells” value (restored cells; 5 μM, vs absence of manumycin) was “less robust morphology”, the “telomere length of restored cell sample” value (restored cells; R1-D1 pair, presence vs absence of manumycin) was “decreased” and the “gene expression of restored cell samples” value (restored cells; co-cultured in the presence of manumycin) was “did not display a change in expression levels similar to those observed in the absence of manumycin”. The “protein expression (senescence-related factors) of restored cell samples” value (restored cells; vs co-culture in the absence of manumycin) was “elevated levels of all proteins investigated”.

With “miR-1303: miRNA (miR-1303), UUUAGAGACGGGGUCUUGCUCU (listed as RNA, chemistry not fully specified; listed as Homo sapiens)” the aged colony formation (aged cells) was “significant effect”.
